Experimental findings from US6544542B1, “Fat emulsions for inhalational administration” (Nippon Shinyaku Co., Ltd., priority 1998, dated 2003) are described below.

This series can be described thus: Test Example 7: influence of the solubilization-effective surfactant concentration on nebulizer sprayability. It is filed as physicochemical.

Triton X100: the “nebulizer sprayability, CA” value is “Infeasible”.
Turning to Tween-80, the “nebulizer sprayability, CA” value is listed as “Infeasible”; the “nebulizer sprayability, Dexamethasone palmitate” value is recorded as “Infeasible”; the “nebulizer sprayability, Guaiazulene” value is “Infeasible”.
